Laboratory results published in patent US10829520B2, “Beta-hairpin peptidomimetics” (POLYPHOR AG, priority 2015, dated 2020).
Where a SMILES comes first, the peptide text is derived from it. Bridges are numbered along the chain shown (N, C = ends). [ ]: non-standard residue; d: D form. The star is where a group is joined. NαAmidinoTrp = N=C(N)N[C@@H](Cc1c[nH]c2ccccc12)C(=O)*; NMeW = CN[C@@H](Cc1c[nH]c2ccccc12)C(=O)O; Hyp = O=C(O)[C@@H]1C[C@@H](O)CN1; Pen = CC(C)(S)[C@H](N)C(=O)O; Tle = CC(C)(C)[C@H](N)C(=O)O; dDab = NCC[C@@H](N)C(=O)O; Orn = NCCC[C@H](N)C(=O)O; Dab = NCC[C@H](N)C(=O)O; dAze = O=C(O)[C@H]1CCN1; Sar = CNCC(=O)O

What was measured:
Format in all cases: cell-based
[1] = tested on: Acinetobacter baumannii 872842; details: 872842
[2] = tested on: Pseudomonas aeruginosa ATCC 27853; details: ATCC 27853
How it was run: (§1)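 Using the CLSI reference method, each strain at approx. 10^6 CFU/mL was exposed to serially diluted peptide in MH-II broth with 0.002% P-80. After 18-20 h at 35° C, the lowest concentration showing no visible growth gave the MIC.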

[3] = tested on: Klebsiella pneumoniae SSI #3010; details: SSI #3010
How it was run: as §1

Escherichia coli 926415 = details: 926415
[4] = tested on: Acinetobacter baumannii DSM 30008; details: DSM 30008
How it was run: as §1

[5] = tested on: Klebsiella pneumoniae 968733; details: 968733
[6] = tested on: Escherichia coli ATCC 25922; details: ATCC 25922
How it was run: as §1

[7] = tested on: human red blood cells (hRBC); assay: Hemolysis of human red blood cells; details: red cells of human, 1 h
How it was run: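 Hemolysis was read as supernatant absorbance at 540 nm and expressed as a percentage of Triton X-100 (2.5%) lysis. Washed human red cells (20% v/v) had been exposed to each peptide at 100 μg/mL for 1 h at 37° C.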

SMILES | Acinetobacter baumannii 872842 MIC [1] [µg/mL] | Pseudomonas aeruginosa ATCC 27853 MIC [2] [µg/mL] | Klebsiella pneumoniae SSI #3010 MIC [3] [µg/mL] | Escherichia coli 926415 MIC (Escherichia coli 926415) [µg/mL] | Acinetobacter baumannii DSM 30008 MIC [4] [µg/mL] | Klebsiella pneumoniae 968733 MIC [5] [µg/mL] | Escherichia coli ATCC 25922 MIC [6] [µg/mL] | Hemolysis at 100 μg/mL ([7]; 100 μg/mL) [%] | Hemolysis at 100 μg/mL [7]; 100 [%]
CC[C@H](C)[C@@H]1NC(=O)[C@@H]2CCCN2C(=O)[C@H]2CCCN2C(=O)[C@H](Cc2ccc(O)cc2)NC(=O)[C@@H](NC(=O)[C@@H](NC(=O)[C@H](CCN)NC(=O)[C@@H](N)CC(C)C)C(C)C)CSSC[C@@H](C(=O)N[C@@H](Cc2ccc(O)cc2)C(=O)N[C@@H](CCN)C(=O)N(C)CC(=O)N[C@@H](CCN)C(=O)N[C@H](C(=O)N[C@@H](CCN)C(=O)N[C@H]2CCNC(=O)[C@H]([C@@H](C)O)NC(=O)[C@H](CCN)NC(=O)[C@H](CCN)NC(=O)[C@H](CC(C)C)NC(=O)[C@@H](CC(C)C)NC(=O)[C@H](CCN)NC2=O)[C@@H](C)O)NC1=O [Ex. 170] (H-L[Dab]VCY[dP]PICY[Dab][Sar][Dab]T[Dab][Dab][Dab][dL]L[Dab][Dab]T; disulfide 4-9; lactam 16-C) | 0.125 | 0.5 | 1 | 0.25 | 1 | 0.5 | 0.5 | 1 | 
CC(=O)N[C@@H](CC(C)C)C(=O)N[C@@H](CO)C(=O)N[C@H](C(=O)N[C@H]1CSSC[C@@H](C(=O)N[C@@H](Cc2ccc(O)cc2)C(=O)N[C@@H](CC(N)=O)C(=O)N[C@@H](CCCN)C(=O)N[C@H](CCN)C(=O)N[C@@H](CCN)C(=O)N[C@@H](CCN)C(=O)N[C@H]2CCNC(=O)[C@H]([C@@H](C)O)NC(=O)[C@H](CCN)NC(=O)[C@H](CCN)NC(=O)[C@H](CC(C)C)NC(=O)[C@@H](Cc3ccccc3)NC(=O)[C@H](CCN)NC2=O)NC(=O)[C@H](CC(C)C)NC(=O)[C@H](CCCNC(=N)N)NC(=O)[C@@H](CCN)NC(=O)[C@H](C(C)C)NC1=O)C(C)(C)C [Ex. 171] (Ac-LS[Tle]CV[dDab]RLCYN[Orn][dDab][Dab][Dab][Dab][Dab][dF]L[Dab][Dab]T; disulfide 4-9; lactam 16-C) | 2 | 0.5 | 1 | 2 | 2 | 4 | 1 | 2 | 
CC(C)C[C@@H]1NC(=O)[C@@H](CC(C)C)NC(=O)[C@H](CCN)NC(=O)[C@@H](NC(=O)[C@H](CCN)NC(=O)[C@H](CCN)NC(=O)[C@H](CCN)NC(=O)CNC(=O)[C@H](CCN)NC(=O)[C@H](Cc2ccc(O)cc2)NC(=O)[C@@H]2CCNC(=O)C[C@H](NC(=O)[C@@H](NC(=O)[C@H](CCN)NC(=O)[C@H](Cc3c[nH]c4ccccc34)NC(=N)N)C(C)C)C(=O)N[C@@H](Cc3ccc(O)cc3)C(=O)N3CCC[C@@H]3C(=O)N3CCC[C@H]3C(=O)N[C@@H](C(C)C)C(=O)N2)CCNC(=O)[C@H]([C@@H](C)O)NC(=O)[C@H](CCN)NC(=O)[C@H](CCN)NC1=O [Ex. 172] (NαAmidinoTrp-[Dab]VDY[dP]PV[Dab]Y[Dab]G[Dab][Dab][Dab][Dab][Dab][dL]L[Dab][Dab]T; lactam 3-8, 15-C) | 0.25 | 0.125 | 0.125 | 0.5 | 0.0625 | 0.5 | 0.0625 |  | 1
CC(C)C[C@@H]1NC(=O)[C@@H](CC(C)C)NC(=O)[C@H](CCN)NC(=O)[C@@H](NC(=O)[C@H](CCN)NC(=O)[C@@H](NC(=O)[C@H](CCN)NC(=O)CNC(=O)[C@H]2NC(=O)[C@H](Cc3ccc(O)cc3)NC(=O)[C@H](CO)NC(=O)[C@H](CC(C)C)NC(=O)[C@@H]3CCCN3C(=O)[C@H]3CCCN3C(=O)[C@H](CO)NC(=O)[C@H](C)NC(=O)[C@H](C(C)C)NC(=O)[C@@H](NC(=O)[C@H](Cc3c[nH]c4ccccc34)NC(=N)N)CSSC2(C)C)[C@@H](C)O)CCNC(=O)[C@H]([C@@H](C)O)NC(=O)[C@H](CCN)NC(=O)[C@H](CCN)NC1=O [Ex. 173] (NαAmidinoTrp-CVAS[dP]PLSY[Pen]G[Dab]T[Dab][Dab][Dab][dL]L[Dab][Dab]T; disulfide 1-10; lactam 15-C) | 0.25 | 0.5 | 0.125 | 0.5 | 0.125 | 1 | 0.125 | 1 | 
CN[C@@H](Cc1c[nH]c2ccccc12)C(=O)N[C@H]1CSSC[C@@H](C(=O)N(C)CC(=O)N[C@@H](CCN)C(=O)N[C@H](C(=O)N[C@@H](CCN)C(=O)N[C@H]2CCNC(=O)[C@H]([C@@H](C)O)NC(=O)[C@H](CCN)NC(=O)[C@H](CCN)NC(=O)[C@H](CC(C)C)NC(=O)[C@@H](CC(C)C)NC(=O)[C@H](CCN)NC2=O)[C@@H](C)O)NC(=O)[C@H](Cc2ccc(O)cc2)NC(=O)[C@H]([C@@H](C)O)NC(=O)[C@H](C(C)C)NC(=O)[C@@H]2C[C@@H](O)CN2C(=O)[C@@H](C)NC(=O)[C@H]([C@@H](C)O)NC(=O)[C@H](C)NC(=O)[C@H](C(C)C)NC1=O [Ex. 175] (H-[NMeW]CVAT[dA][Hyp]VTYC[Sar][Dab]T[Dab][Dab][Dab][dL]L[Dab][Dab]T; disulfide 2-11; lactam 16-C) | 1 | 0.25 | 0.0625 | 0.5 | 0.0625 | 0.5 | 0.0625 | <1 | 
CN[C@@H](Cc1c[nH]c2ccccc12)C(=O)N[C@@H](CCN)C(=O)N[C@H](C(=O)N[C@H]1CC(=O)NCC[C@@H](C(=O)N[C@@H](Cc2ccc(O)cc2)C(=O)N[C@@H](CCN)C(=O)N(C)CC(=O)N[C@@H](CCN)C(=O)N[C@H](C(=O)N[C@@H](CCN)C(=O)N[C@H]2CCNC(=O)[C@H]([C@@H](C)O)NC(=O)[C@H](CCN)NC(=O)[C@H](CCN)NC(=O)[C@H](CC(C)C)NC(=O)[C@@H](CC(C)C)NC(=O)[C@H](CCN)NC2=O)[C@@H](C)O)NC(=O)[C@H](C(C)C)NC(=O)[C@@H]2CCCN2C(=O)[C@H]2CCN2C(=O)[C@H]([C@@H](C)O)NC1=O)C(C)(C)C [Ex. 176] (H-[NMeW][Dab][Tle]DT[dAze]PV[Dab]Y[Dab][Sar][Dab]T[Dab][Dab][Dab][dL]L[Dab][Dab]T; lactam 4-9, 16-C) | 0.5 | 0.25 | 0.0625 | 0.0625 | 0.03125 | 0.25 | 0.03125 |  | <1
CC(C)C[C@@H]1NC(=O)[C@@H](Cc2ccccc2)NC(=O)[C@H](CCN)NC(=O)[C@@H](NC(=O)[C@H](CCN)NC(=O)[C@@H](CCN)NC(=O)[C@@H](NC(=O)[C@H](CCCN)NC(=O)[C@@H]2CSSC[C@H](NC(=O)[C@@H](N)Cc3c[nH]c4ccccc34)C(=O)N[C@@H](C(C)C)C(=O)N[C@@H](C)C(=O)N[C@@H](CO)C(=O)N3CCC[C@@H]3C(=O)N3CCC[C@H]3C(=O)N[C@@H](C(C)C)C(=O)N[C@@H](CO)C(=O)N[C@@H](Cc3ccc(O)cc3)C(=O)N2)[C@@H](C)O)CCNC(=O)[C@H]([C@@H](C)O)NC(=O)[C@H](CCNC(=O)[C@@H](N)CCCNC(=N)N)NC(=O)[C@H](CCN)NC1=O [Ex. 177] (H-WCVAS[dP]PVSYC[Orn]T[dDab][Dab][Dab][Dab][dF]L[Dab][Dab](Arg)T; disulfide 2-11; lactam 16-C) | 2 | 0.5 | 1 | 2 | 1 | 2 | 1 | 1.4 | 
